Results from article doi:10.1101/2025.05.23.655116v1 (biorxiv, 2025).

Biological target: T1, FBG domain of Tenascin C (FBG-C, FBG-BAP, hFBG-C) (Homo sapiens, UniProt P24821)
T1 sequence (P24821 1976-2193): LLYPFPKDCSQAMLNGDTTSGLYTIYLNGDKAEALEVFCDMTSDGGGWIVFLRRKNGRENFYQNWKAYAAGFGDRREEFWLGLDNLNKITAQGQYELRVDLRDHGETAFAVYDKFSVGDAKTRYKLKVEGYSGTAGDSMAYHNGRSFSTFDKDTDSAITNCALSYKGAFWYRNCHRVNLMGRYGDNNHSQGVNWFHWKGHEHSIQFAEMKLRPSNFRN
Test: SPR, biotinylated FBG on SA chip
Assay type: binding

Kd: 553 µM
Structure (SMILES): COc1ccc(CN(C)CCc2cnn(C)c2)cc1OC[C@@H](O)CN1CCCCC1 [compound 830, 73494830]
